Results on one compound are retold here after patent US5631279A, “Perhydroisoindole derivatives, preparation thereof and pharmaceutical compositions containing same” (Rhone-Poulenc Rorer, S.A., priority 1993, dated 1997).

For this assay, the system named is rabbit pulmonary artery. The experiment in a line: Antagonism of rabbit pulmonary artery contractions induced by [Lys5 MeLeu9 Nle10]NKA(4-10). Set-up: species or system rabbit (male, New Zealand albino). Particulars: product incubated for 2 hours; [Lys5 MeLeu9 Nle10]NKA(4-10) as agonist; Krebs solution 37° C. On the procedure: The in vitro antagonistic activity of the products is determined with respect to rabbit pulmonary artery contractions induced by [Lys^5 MeLeu^9 Nle^10 ]NKA(4-10) according to the technique described by D. Regoli et al., Trends Pharmacol. Sci, 2, 290-295 (1988) and P. D'Orleans-Juste et al., Eur. J. Pharmacol., 125, 37-44 (1985). The pulmonary artery of the rabbit (male, New Zealand albino) is withdrawn; the endothelium is destroyed by introduction into the arterial lumen of a glass rod coated with filter paper, and the artery is then cut into rings and incubated in an isolated-organ tank containing an oxygenated Krebs solution (95% O2; 5% CO2) at 37° C. at a tension of 1 g. After determining the agonistic activity of [Lys^5 MeLeu9Nle^10 ]NKA(4-10) (contractile effect), the product to be studied is incubated for 2 hours in the isolated-organ tank before a further addition of [Lys^5 MeLeu^9 Nle^10 ]NKA(4-10). The percentage inhibition obtained is calculated. The antagonistic activity of a product is expressed in terms of IC^50.
In the above technique, the products studied display an antagonism to rabbit pulmonary artery contractions at the following concentration: […]

For `COc1ccccc1[C@@]1(O)[C@H](O)CC(c2ccccc2)(c2ccccc2)[C@@H]2CN(C(=O)Cc3c[nH]c4ccccc34)C[C@@H]21` [Example 1], the IC50 (in general, the concentration at which inhibition is half-maximal) is 215 nM.
